What all share (settings): Na2HPO4-citric acid buffer, pH 5.0, 40 °C, 15 min, 5–150 mM L-Glu
Assay [1] relates to GADZ11. The text has this: HPLC of GABA (DABS-Cl derivatisation), initial rate nonlinear fit on GADZ11
Assay [2] deals with GADZ20. From the text: HPLC of GABA (DABS-Cl derivatisation), initial rate nonlinear fit on GADZ20
Assay [3] deals with GADZ1. From the text:
HPLC of GABA (DABS-Cl derivatisation), initial rate nonlinear fit on GADZ1

With `N[C@@H](CCC(=O)O)C(=O)O` [L-Glu], the Km (in general, the concentration of substrate that gives half-maximal velocity) in assay [1] was 52.4 ± 5.44 mM; in assay [2], 13.3 ± 1.95 mM; in assay [3] it was 45.4 ± 8.63 mM.

For the origin of these results see article PMC8336373, “Characterization of three glutamate decarboxylases from Bacillus spp. for efficient γ-aminobutyric acid production” (Microbial Cell Factories, 2021).
